Measurements published in patent US8475823B2, “Baclofen formulation in a polyorthoester carrier” (Medtronic, Inc., priority 2008, dated 2013).

Key:
[1] = test system: acetic acid induced bladder hypermotility (frequency of bladder contraction reflexes); test: Epidural infusion of baclofen in a rat model of bladder pain, intravesical acetic acid infusion (painful bladder activity); assay type: in vivo; conditions: female rat, epidural infusion 10 μg/day
Protocol: (§1) FIG. 2 is a graphic representation of epidural infusion of baclofen in rats treated with an intravesical infusion of acetic acid as described in Example 4. Baseline bladder activity was measured before epidural drug treatment. The columns and error bars represent the mean and SEM values of 10 rats per group. Asterisks indicate statistically significant dose effects compared to baseline as determined by post-hoc Dunnett Multiple Comparison Test.
(§2) An animal model that has been used frequently to study pelvic pain conditions is a rat model of bladder pain. In this model, a female rat was lightly anesthetized with isoflurane and a transurethral catheter was placed into the bladder. The catheter was connected to a pressure transducer so that the pressure within the bladder could be continuously monitored and recorded over time. Fluid was continuously infused into the bladder using a syringe pump at a rate of 0.1 mL/min to cause the bladder to contract repeatedly each time it became full. This is referred to as a volume-evoked micturition reflex or contraction. […]
In order to evaluate the effects of epidurally administered analgesics on normal and painful bladder activity (frequency of reflex bladder contractions), test drugs were continuously administered via an epidural catheter with the tip placed in the mid-lumbar epidural space. […] In the experiments depicted in FIGS. 1 and 2, the baseline bladder activity was measured before implanting the epidural infusion system, the infusion system was implanted on day 0 and cystometrograms were recorded on three consecutive days during which baclofen (10 μg/day) was infused into the lumbar epidural space.
Baclofen at 10 μg/day reduced acetic acid induced bladder hypermotility by approximately 3 fold on day 3. The frequency of bladder contraction observed during acetic acid infusion and epidural baclofen administration was similar to the baseline bladder activity measured during saline infusion (0.195±0.047 day 3 acetic acid and epidural baclofen vs 0.193±0.035 baseline saline).

[2] = test system: normal bladder activity (frequency of reflex bladder contractions); test: Epidural infusion of baclofen in a rat model of bladder pain, intravesical saline infusion (normal bladder activity); assay type: in vivo; conditions: female rat, epidural infusion 10 μg/day
Protocol: as §1, with “1” for “2”, “saline.” for “acetic acid as described in Example 4.”, “treatment as described in Example 4.” for “treatment.”
as §2, with “contraction. A repeated series of bladder contractions (pressure spikes) over time was collected using this method. To mimic normal bladder activity, 0.9% saline was infused into the bladder; to mimic painful bladder activity, a dilute solution of acetic acid (0.5%) was infused into the bladder.” for “contraction.”

NCC(CC(=O)O)c1ccc(Cl)cc1 (centres unmarked) [baclofen, 4-amino-3-(4-chlorophenyl)butanoic acid]
frequency of bladder contraction reflexes during acetic acid infusion ([1]; 0.5% acetic acid, all three days, vs baseline): significantly reduced | reduction of acetic acid induced bladder hypermotility ([1]; day 3): approximately 3 fold | frequency of bladder contraction during acetic acid infusion and epidural baclofen administration ([1]; day 3, mean ± SEM, 10 rats per group): 0.195±0.047 reflexes per min | effects on normal bladder activity measured during saline infusion ([2]; days 1 and 2, vs baseline): minimal effects | contraction rate relative to the baseline reflex contraction rate ([2]; saline infusion, day three): statistically significant reductions
